Measurements reported in patent US7297481B2, “Detection of DNA damage” (ESA Biosciences, Inc., priority 2000, dated 2007).
Blank lines part the entries; values can stand above or below the molecule they belong to.

Legend:
[1] = test system: C. Elegans; experiment: 8OH2′dG production (DNA damage rate) in C. Elegans culture; assay type: in vivo
Text: 2. Relevant to the use of DNA damage rate measurements to cancer diagnosis I have observed that in C. Elegans culture there is a burst of 8OH2′dG production during the stage of rapid replication of the gonadal cells. In similar experiments I observed that a toxin (3 nitro propionic acid, 3NP) increased the rate of DNA damage during replication.
4. […] In rapid cell replication in C. Elegans, in 3NP insulted C.

[2] = Dialysis studies of 8OH2′dG in extracellular matrix, probes in brain and muscle; assay type: in vivo; settings: extracellular matrix vs free levels inside cellular material, brain and muscle of rat and mouse
Text: (§1) 1. Dialysis studies of 8OH2′dG in extracellular matrix with probes placed in brain and muscle of rat and mouse to measure the rate of production and excretion compared with the free levels inside the cellular material confirm that excretion from the cells is rapid. Similarly, comparison of CSF, Plasma and urinary levels of ca 1:10:2000 in ca 100 ALS and control subjects confirm that the rate of clearance from the body is high.

[3] = Comparison of CSF, plasma, urine, saliva and sweat levels of 8OH2′dG; assay type: in vivo, human
Text: as §1

[4] = Effect of simple antioxidants on levels of 8OH2′dG; assay type: in vivo
[5] = Urine 8OH2′dG levels in individuals exposed to chemicals; assay type: in vivo, human; settings: individuals exposed to the substance

Molecule: O=C(O)CC[N+](=O)[O-] [3NP, 3 nitro propionic acid]
rate of damage after the toxin was removed ([1]; after exposure): still maintained at a higher level | rate of DNA damage during replication ([1]; toxin exposure): increased

excretion from the cells [2]: rapid | rate of clearance from the body ([3]; CSF, plasma and urinary levels ca 1:10:2000 in ca 100 ALS and control subjects): high
Molecule: Nc1nc2c(nc(O)n2[C@H]2C[C@H](O)[C@@H](CO)O2)c(=O)[nH]1 [8OH2′dG, 8 hydroxy 2′ deoxyguanosine]
mode of removal ([3]; saliva or sweat vs. urine levels, plasma of kidney dialysis patients): urinary excretion is the primary mode of removal

Molecule: O=C1O[C@H]([C@@H](O)CO)C(O)=C1O [Ascorbate]
effect on the levels of 8OH2′dG [4]: no effect

Molecule: Nc1ccccc1 [aniline]
Urine levels of 8OH2′dG [5]: significantly increased

Molecule: [As] [arsenic]
Urine levels of 8OH2′dG [5]: significantly increased

Molecule: Cc1ccccc1N [o-toluidine]
Urine levels of 8OH2′dG [5]: significantly increased

Molecule: Tocopherol
effect on the levels of 8OH2′dG [4]: no effect
